Measured values from US5032591A, “Pharmaceutical preparations” (Beecham Group p.l.c., priority 1988, dated 1991).

Tested on: conscious male spontaneously hypertensive rats (SHR)
Experiment: anti-hypertensive response: area under the control group blood pressure curve (mean arterial blood pressure, indwelling catheter) in conscious male spontaneously hypertensive rats
Type: in vivo
Conditions: cromakalim 0.075 mg/kg po, n=10
Protocol: Mean arterial blood pressures were measured from an indwelling catheter as described by Buckingham 1976 J. Pharm. Pharmac Vol. 28, pp 459-461. 1. Calculation of area under the control group blood pressure curve (AUC). Group mean arterial blood pressure values were calculated as % change from the pretreatment baseline. For each drug treatment group the area under the control group blood pressure curve was calculated using a trapezoidal method. […] Predicted AUC values were arrived at by combining values for each treatment given alone.

CC1(C)Oc2ccc(C#N)cc2[C@@H](N2CCCC2=O)[C@@H]1O (racemic) [Cromakalim, (±)-6-cyano-3,4-dihydro-2,2-dimethyl-trans-4-(2-oxo-1-pyrrolidinyl)-2H-benzo[b]pyran-3-ol]
AUC (0-2 h) (0-2 h): 1941
AUC (0-4 h) (0-4 h): 2981
